Assay results from US20160067246A1, “USE OF PHOSPHODIESTERASE 5A INHIBITORS FOR THE TREATMENT OF MUSCULAR DYSTROPHY” (CEDARS-SINAI MEDICAL CENTER, priority 2013, published 2016).

How the values were obtained:
Type in all cases: in vivo, human
[1] = tested on: boys with Duchenne muscular dystrophy (DMD); assay: Exercise-induced hyperemia: brachial artery blood flow by Doppler ultrasound and hemodynamics, rest and post handgrip; design: key to BA velocity: mean blood velocity in cm/s; Heart rate: unit not given here
Description: Subjects were studied in the supine position. Heart rate was measured continuously by electrocardiography, and blood pressure measured by automated oscillometric sphygomanometry using a child's cuff ([…] Monitor 300 Series). Brachial artery mean blood velocity (MBV) was measured from the exercising arm using pulsed-Doppler ultrasonography (Siemens iE33). Data were acquired continuously with a 9-MHz probe with a 60° angle of insonation, placed on the skin surface distal to the axilla. The ultrasound gate was optimized to ensure complete insonation of the entire vessel cross-section with constant intensity. The Doppler audio signal was converted to a real-time flow velocity signal using a validated Doppler audio converter,^8B and recorded using a PowerLab data acquisition system (ADInstruments, CO). Brachial artery diameter was measured by B-mode imaging in triplicate at rest. […] Brachial artery blood flow was calculated as MBV (cm/s)·πr^2·60, where r is radius of the brachial artery. […] exercise was performed with a dynamometer ([…] Dynamometer modified by Stoelting). To determine maximal voluntary contraction (MVC), each subject was asked to grip the dynamometer as hard as possible. […] Vascular conductance was calculated as forearm blood flow divided by mean arterial pressure. […] Patients then crossed over 2 weeks later for the opposite drug. […] Patients were queried about potential side-effects throughout the study visit. Baseline characteristics of patients and controls were compared using Student's t test. Exercise-induced attenuation of reflex vasoconstriction (functional sympatholysis) was assessed by comparing the LBNP-induced AHbO2+MbO2 (% TLS) at rest versus the LBNP-induced decrease in ΔHbO2+MbO2 during handgrip. Group differences in ΔHbO2+MbO2 were assessed using a Student's t test. The drug treatment effect on LBNP-induced Δ·HbO2+MbO2 (% TLS) at rest versus the LBNP-induced decrease in ΔHbO2+MbO2 during handgrip was compared to baseline for each patient using a Student's t test. The group difference in the % Δ in brachial artery blood flow was assessed using a student's t test. The drug treatment effect on the % Δ in brachial artery blood flow was compared using a student's t test. All analyses were performed in SigmaPlot. Data are expressed as mean±SEM, unless otherwise specified.

[2] = Tadalafil blood levels by HPLC/tandem MS in BMD patients
Description: The order of tadalafil/placebo was random. The research pharmacist placed tadalafil tablets or lactose powder (placebo) in opaque capsules to blind patients and investigators, both for the test dose and study dose of drug or placebo. Patients were queried about potential tadalafil-specific side-effects both for safety monitoring and to assess whether blinding was maintained. tadalafil blood levels were measured using high performance liquid chromatography/tandem mass spectrometry (NMS Labs Willow Grove, Pa.).

[3] = tested on: patients with Becker muscular dystrophy (BMD); assay: Functional sympatholysis: LBNP-induced decrease in forearm muscle oxygenation (NIR spectroscopy) at rest vs handgrip, tadalafil acute crossover trial
Description: Forearm muscle oxygenation was measured with near-infrared (NIR) spectroscopy, which is based on the principle that laser light with wavelengths in the 700-900 nm range easily penetrates skeletal muscle, and is absorbed by the iron-porphyrin moieties in hemoglobin and myoglobin. Changes in NIR light absorption are proportional to changes in the relative concentrations of oxygenated hemoglobin and myoglobin (HbO2 and MbO2). Because of their nearly identical absorption spectra, individual contributions of HbO2 and MbO2 cannot be determined. The NIR signals reflect changes in oxygenation occurring mainly in the microvasculature, because vessels greater than one millimeter in diameter are maximal absorbers of photons due to the high extinction coefficient of blood. Thus, NIR spectroscopy provides continuous measurement of the adequacy of tissue oxygen delivery relative to its use. […] Changes in forearm tissue oxygenation were expressed as a percentage of […] exercise was performed using a dynamometer ([…] Dynamometer modified by Stoelting, Wood Dale, Ill.). […] The pressure in the chamber was measured by a Statham transducer (Gould Inc., Oxnard, Calif.). […] Reflex vasoconstriction was measured as the LBNP-induced decrease in forearm muscle oxygenation by NIR spectroscopy; this approach provides a valid measure of reflex neurogenic vasoconstriction under these conditions (13). The BP, heart rate, handgrip force, and NIR signals were recorded in response to two minutes of LBNP applied at rest and during the third to fifth minutes of the seven-minute exercise period. […] Patients were queried about potential tadalafil-specific side-effects both for safety monitoring and to assess whether blinding was maintained. tadalafil blood levels were measured using high performance liquid chromatography/tandem mass spectrometry (NMS Labs Willow Grove, Pa.). […] Exercise-induced attenuation of reflex vasoconstriction (functional sympatholysis) was assessed by comparing the LBNP-induced AHbO2+MbO2 (% TLS) at rest vs. the LBNP-induced decrease in AHbO2+MbO2 during handgrip. […]

SMILES: CN1CC(=O)N2[C@H](c3ccc4c(c3)OCO4)c3[nH]c4ccccc4c3C[C@@H]2C1=O [tadalafil]
- BA VC (vascular conductance) ([1]; 0.5 mg/kg, Post-exercise): 2.6 ± 0.4 ml/min/mmHg
- BA blood flow ([1]; 0.5 mg/kg, Post-exercise): 184 ± 24 mL/min
- BA velocity ([1]; 0.5 mg/kg, Post-exercise): 38 ± 5
- Heart rate ([1]; 0.5 mg/kg, Post-exercise): 94 ± 3
- MAP ([1]; 0.5 mg/kg, Post-exercise): 72 ± 2 mmHg
- BA VC (vascular conductance) ([1]; 0.5 mg/kg, Rest): 1.7 ± 0.3 ml/min/mmHg
- BA blood flow ([1]; 0.5 mg/kg, Rest): 118 ± 15 mL/min
- BA velocity ([1]; 0.5 mg/kg, Rest): 26 ± 4
- Heart rate ([1]; 0.5 mg/kg, Rest): 91 ± 3
- MAP ([1]; 0.5 mg/kg, Rest): 74 ± 3 mmHg
- BA VC (vascular conductance) ([1]; 1.0 mg/kg, Post-exercise): 2.5 ± 0.3 ml/min/mmHg
- BA blood flow ([1]; 1.0 mg/kg, Post-exercise): 170 ± 17 mL/min
- BA velocity ([1]; 1.0 mg/kg, Post-exercise): 35 ± 4
- Heart rate ([1]; 1.0 mg/kg, Post-exercise): 92 ± 4
- MAP ([1]; 1.0 mg/kg, Post-exercise): 71 ± 3 mmHg
- BA VC (vascular conductance) ([1]; 1.0 mg/kg, Rest): 1.5 ± 0.3 ml/min/mmHg
- BA blood flow ([1]; 1.0 mg/kg, Rest): 104 ± 14 mL/min
- BA velocity ([1]; 1.0 mg/kg, Rest): 21 ± 3
- Heart rate ([1]; 1.0 mg/kg, Rest): 91 ± 3
- MAP ([1]; 1.0 mg/kg, Rest): 71 ± 2 mmHg
- peak blood concentration of tadalafil in patient P10 (no sympatholysis) ([2]; BMD patient P10, 20 mg oral): 300 ng/mL
- peak tadalafil blood concentration, mean ([2]; BMD patients, 20 mg oral): 260 ± 13 ng/mL
- peak tadalafil blood concentrations, range ([2]; BMD patients, 20 mg oral): 170 to 310 ng/mL
- attenuation of the reflex (LBNP) decrease in muscle oxygenation during handgrip ([3]; 10 BMD patients, single 20 mg oral tadalafil, >=3 h after dose): 52±12%
- LBNP-induced ΔHbO2+MbO2 (% TLS) at rest ([3]; BMD patients, 20 mg tadalafil, at rest): −17±2%
- LBNP-induced ΔHbO2+MbO2 (% TLS) during handgrip ([3]; BMD patients, 20 mg tadalafil, during handgrip 20% MVC): −9±2%
